This is an account of results in publication PMC10201506 (Signal Transduction and Targeted Therapy, 2023).

Molecules are shown by their SMILES.

The test system of assay [1] is SARS-CoV-2 Omicron BA.1 variant. Kind of assay: microbe, parasite or virus in culture. It is filed as cell-based. To be noted: Severe acute respiratory syndrome coronavirus 2, Vero C1008, 24 h, read-out: EC50 Omicron BA.1 variant replication.
Assay [2] concerns SARS-CoV-2 Delta variant. Kind of assay: microbe, parasite or virus in culture. It is filed as cell-based. To be noted: Severe acute respiratory syndrome coronavirus 2, Vero C1008, 24 h, read-out: EC50 Delta variant replication.
The subject of assay [3] is SARS-CoV-2 delta variant. Details: species or system K18-hACE2 mice. To be noted: mouse, in vivo.

Consider `O=C(c1cc(=O)[nH]c2ccccc12)N1CCN(c2ccc(Cl)c(Cl)c2)CC1CN1CCOCC1` (centres unmarked) [JZD-07, 4-(4-(3,4-Dichlorophenyl)-2-(morpholinomethyl)piperazine-1-carbonyl)quinolin-2(1H)-one], for which, in assay [1], the EC50 is 6.03 µM. For the same compound, in the assay with SARS-CoV-2 Delta variant [2], the EC50 was determined as 7.24 µM. Also, in the assay on SARS-CoV-2 delta variant [3], the “immunohistochemistry staining of viral nucleocapsid protein in lungs” value is “suppressed viral titer in mice lungs”, the “reduction of viral copy loads of the lung vs vehicle” value is given as roughly 1.0 log and the “reduction of viral titers of the lung vs vehicle” value is given as 2.0 log.
